In article PMC5731860, “Novel allylated monocarbonyl analogs of curcumin induce mitotic arrest and apoptosis by reactive oxygen species-mediated endoplasmic reticulum stress and inhibition of STAT3” (Oncotarget, 2017):
“Also recorded” adds a separate entry of the source.

What was measured:
[1] = H&E histology of vital organs of xenograft mice; format: in vivo; details: ip once a day for 12 days
Description: Portions of heart, liver, kidney and tumor tissues from mice were fixed in 4% paraformaldehyde solution for 1 week at room temperature. Specimens were then dehydrated by passing through graded ethanol, cleared in xylene, and embedded in paraffin wax. Tissue blocks were sectioned at 5 μm thickness and used for H&E and immunohistochemical staining. Tumor tissue sections were stained with indicated primary antibodies for overnight followed by secondary antibodies for 2 h. Diaminobenzidine (DAB) was used for detection. The slides were counterstained with hematoxylin for 30 seconds and mounted. For histologic analysis of heart, kidney and liver tissue sections, we performed routine H&E staining and viewed the sections under a light microscope (20× magnification, Nikon, Japan).

p-STAT3 = assay: Western blot of p-STAT3; format: cell-based, human; details: SGC-7901, western blot, 1, 3, 6 and 12 h; total STAT3 not changed
Description: (§1) Protein samples were prepared from cells following treatments or tumor tissues. Protein concentration was determined by Bradford protein assay kit (Bio-Rad, Hercules, CA). Samples were separated on precast 8%-12% SDS polyacrylamide gels. After electrophoresis, proteins were transferred to poly vinylidene difluoride (PVDF) membrane. The membranes were blocked with 5% non-fat milk in tris-buffered saline containing 0.1% Tween 20 (TBST) for 90 min at room temperature, then primary antibodies (1:1000) in TBST were added and membranes incubated overnight at 4°C. After washing with TBST, horseradish peroxidase (HRP)-conjugated secondary antibodies (1:3000) were added for 1 hour at room temperature. After additional washing with TBST, enhanced chemiluminescence detection system (ECL, GE Healthcare) was used. Membranes were probed for GAPDH as a loading control. The density of the immunoreactive bands was analyzed using Image J (National Institute of Health, MD).

[2] = tested on: SGC-7901 xenograft tumors; assay: In vivo mouse xenograft model, tumor growth; parameters: species or system mice
Source text: (§2) All animal experiments complied with the Wenzhou Medical University's Policy on the Care and Use of Laboratory Animals. Protocols for animal studies were approved by the Wenzhou Medical University Animal Policy and Welfare Committee (Approved documents: 2016/201). Athymic BALB/c nu/nu female mice weighing 20–22 g (6 weeks old) were purchased from Vital River Laboratories (Beijing, China). Animals were housed (6 animals/gage) at a constant room temperature with a 12/12-hr light/dark cycle and fed a standard rodent diet and water ad libitum. SGC-7901 cells were injected subcutaneously into the right flank of each mice at 1 × 10^6 cells in 0.1 mL PBS. Once tumors reached a volume of 100–200 mm^3, mice were randomly divided into 4 groups. These groups included mice treated with 10 mg/kg CA10, mice treated with 20 mg/kg CA10, mice treated 50 mg/kg curcumin, and control mice receiving vehicle alone. All treatments were carried out with intraperitoneal injections. The body weight and tumor volumes were monitored and determined by measuring length (l) and width (w) and calculated as tumor volume (V = 0.5 × l × w2) at the indicated time points. At the end of treatment period, mice were sacrificed and the tumors were removed and weighed for histological analyses and proteins measurement studies.

[3] = tested on: p-PERK, p-eIF2α, ATF-4 and CHOP; assay: Western blot of ER stress proteins; format: cell-based, human; details: SGC-7901, 10 μM, 1, 3, 6 and 12 h
Description: as §1

SGC-7901 [4] = assay: Clonogenic (colony formation) assay; format: cell-based, human; details: SGC-7901, 2.5, 5 or 10 μM for 24 h, then 7 days culture
Description: (§3) The BGC-823 and SGC-7901 cells were seeded at 1000 cells/well in 6 well plates and allowed to attach overnight. Cells were then exposed to various concentrations (2.5, 5 and 10 μM) of CA10 for 24 h in presence and absence of NAC (5 mM). Following treatments, media was changed to fresh culture media and cultures were followed for 7 days. The experiment was terminated by washing the colonies with PBS and fixation with […] at room temperature for 10 min. Colonies were then stained with Crystal violet for 10 min and counted.

BGC-823 [5] = assay: Clonogenic (colony formation) assay; format: cell-based, human; details: BGC-823, 2.5, 5 or 10 μM for 24 h, then 7 days culture
Description: as §3

[6] = Body weight of xenograft mice; format: in vivo; details: 0–12 days, ip once a day; CA10 10 and 20 mg/kg, curcumin 50 mg/kg
Source text: as §2

SGC-7901 cells = assay: Malondialdehyde (MDA) and total GSH in cancer cells; format: cell-based, human
Description: The treated cells were harvested with RIPA buffer at 4°C. Cell lysates were then centrifuged at 12,000 × g for 10 min at 4°C to collect the supernatant. Protein content was determined by the Bradford protein assay kit. Equal amounts of proteins were used for malondialdehyde (MDA) and total GSH assay (Beyotime Institute of Biotechnology, Nantong, China). MDA and total GSH levels were detected by measuring absorbance respectively at 532 nm and 412 nm using a multimode microplate reader (Molecular Devices, SpectraMax 190, USA

HT-29 = assay: MTT assay, growth inhibition; format: cell-based; details: Homo sapiens, HT-29, 24 h
Description: (§4) First, we investigated whether allylated MAC alter the viability or have cytotoxic effects on cells in culture. We have performed MTT tetrazolium reduction assay following exposure of cancer cells (gastric cancer, BGC823 and SGC-7901; colon cancer, HT-29, HCT-116 and SW-480) and normal gastric epithelial cells (GES-1) to all 20 allylated MAC at a concentration of 20 μM for 24 h. […] In addition, we also found notable solubility and stability profile of these compounds (Supplementary Figure 1).
(§5) Cells were plated at a density of 8 × 10^3 cells/well in 96-well plates and allowed to attach overnight. Stock solutions of allylated MAC and curcumin were prepared in DMSO and diluted in culture media to obtain appropriate concentration. Cells were treated for 24 h and 48 h, following which, 20 μL of 5 mg/ml MTT reagent was added. Purple formazan product was dissolved by the addition of 100 μL DMSO to each well. Absorbance was then monitored at 490 nm using a plate reader (Molecular Device Spectra MAX190, USA). Percentage of cytotoxicity was determined using the following formula: Growth inhibition (%) = (OD of control−OD of test/OD of control×100%).

HCT-116 = assay: MTT assay, growth inhibition; format: cell-based, human
Description: as §4, §5

SW-480 = assay: MTT assay, growth inhibition; format: cell-based, human; details: Homo sapiens, SW480, 24 h
Description: as §4, §5

GES-1 = assay: MTT assay, growth inhibition in normal gastric epithelial cells; format: cell-based, human
Description: as §4, §5

SGC-7901 [7] = assay: MTT assay, growth inhibition / cell viability; format: cell-based; details: Homo sapiens
Description: as §4, §5

BGC-823 [8] = assay: MTT assay, growth inhibition / cell viability; format: cell-based; details: Homo sapiens
Description: as §4, §5

SMILES: C=CCc1cc(C=C2CCC(=Cc3ccc(O)c(CC=C)c3)C2=O)ccc1O [CA10]
- toxicity in vital organs (heart, liver, kidney), H&E [1]: without overt toxicity
- protein levels of p-STAT3 (p-STAT3): decreased
- inhibition effect on tumor growth compared to CA10 10 mg/kg or curcumin 50 mg/kg ([2]; 20 mg/kg ip once a day for 12 days): greater inhibition effect
- tumor weight and volume ([2]; ip once a day for 12 days, CA10 10 and 20 mg/kg, curcumin 50 mg/kg): significant reduction
- expression of ER specific proteins (p-PERK, p-eIF2α, ATF-4, CHOP) [3]: increased expression
- number of colonies (SGC-7901 [4]): reduced number
- number of colonies (BGC-823 [5]): reduced number
- body weight of mice [6]: no change
- level of total GSH (SGC-7901 cells; compared to control): no significant changes; also recorded: marginally decreased
- MDA level (SGC-7901 cells; enhanced at 20 μM): increased
- inhibition at 20 µM (HT-29): 77.2 ± 4.86%
- % Of growth inhibition HCT-116 (HCT-116; 20 μM, 24 h): 75.37 ± 4.52%
- inhibition at 20 µM (HCT-116; Homo sapiens, HCT-116, 24 h): 70%
- inhibition at 20 µM (SW-480): 77.4 ± 7.84%
- inhibition of the normal epithelial cells (selective cytotoxicity in cancer cell lines), in words (GES-1; 20 μM, 24 h): minimal inhibition
- inhibition at 20 µM (GES-1; Homo sapiens, GES1, 24 h, normal gastric epithelial cells): 23.4 ± 7.48%
- IC50 (SGC-7901 [7]; SGC-7901, 24 h): 15 ± 1.72 µM
- inhibition at 20 µM (SGC-7901 [7]; SGC-7901, 24 h, 20 μM, 24 h): > 80%
- IC50 (SGC-7901 [7]; SGC-7901, 48 h): 6.91 ± 0.43 µM
- inhibition at 20 µM (BGC-823 [8]; BGC-823, 20 μM, 24 h): 67.5 ± 1.54%
- IC50 (BGC-823 [8]; BGC-823, 24 h): 13 ± 2.48 µM
- IC50 (BGC-823 [8]; BGC-823, 48 h): 7.14 ± 1.69 µM
